In brackets after ≈: the same amount, converted by molar mass.

Data set [1] concerns the target T1, Prostaglandin G/H synthase 2 (Homo sapiens, UniProt P35354).
T1 sequence (P35354 whole entry): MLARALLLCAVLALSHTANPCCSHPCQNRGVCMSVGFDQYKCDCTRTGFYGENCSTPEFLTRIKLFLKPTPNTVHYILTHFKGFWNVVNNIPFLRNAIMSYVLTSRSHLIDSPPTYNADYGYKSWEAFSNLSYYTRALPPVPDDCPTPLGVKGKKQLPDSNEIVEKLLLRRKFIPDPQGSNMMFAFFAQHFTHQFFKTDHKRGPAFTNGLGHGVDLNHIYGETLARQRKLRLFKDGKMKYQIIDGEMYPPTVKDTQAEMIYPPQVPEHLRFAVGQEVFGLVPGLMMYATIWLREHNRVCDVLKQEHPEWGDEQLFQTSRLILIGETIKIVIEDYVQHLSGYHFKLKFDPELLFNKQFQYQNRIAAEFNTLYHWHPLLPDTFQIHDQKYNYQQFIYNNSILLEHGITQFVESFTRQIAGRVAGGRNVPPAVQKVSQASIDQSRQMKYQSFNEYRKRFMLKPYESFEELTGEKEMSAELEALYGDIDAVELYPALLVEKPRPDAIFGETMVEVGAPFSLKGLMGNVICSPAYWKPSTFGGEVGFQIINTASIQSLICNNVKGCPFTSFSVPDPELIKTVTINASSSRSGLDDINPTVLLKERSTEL
Nature of the data set: Inhibition of COX2 (unknown origin).

The target in data set [2] is T2, Amyloid-beta precursor protein (Homo sapiens, UniProt P05067). Nature of the data set: Inhibition of [125I]2-(3'-Iodo-4'-N-methylaminophenyl) benzothiazole binding to amyloid beta (1 to 40) (unknown origin) after 3 hrs by NaI well counting method.
The target of data set [3] is T2, Amyloid-beta precursor protein. Description: Inhibition of [125I]2-(3'-Iodo-4'-N-methylaminophenyl) benzothiazole binding to amyloid beta (1 to 42) (unknown origin) after 3 hrs by NaI well counting method.
Data set [4] can be described thus: 1-octanol/phosphate buffer partition coefficient, log P of the compound at pH 7.4 by ultraviolet spectrophotometric method. Format: physicochemical.
A short description of data set [5]: Antioxidant activity assessed as inhibition of DPPH radical formation at 1000 ug/ml relative to control. Format: functional. A general note: Loss of DPPH colour is used to gauge radical scavenging.
The test system of data set [6] is Rattus norvegicus. Description: Anti-inflammatory activity in rat assessed as inhibition of cotton pellet-induced granuloma at 100 mg/kg relative to control. The class given is functional.
Another data set relates to Bacillus subtilis. Nature of the data set: Antibacterial activity against Bacillus subtilis at 5 ug/disc. Format: functional. To be noted: read-out: IZ.
Another data set has as its system Staphylococcus aureus. Nature of the data set: Antibacterial activity against Staphylococcus aureus at 5 ug/disc. The class given is functional. To be noted: read-out: IZ.
Data set [7] deals with Rattus norvegicus. Description: Inhibition of glucose-induced sorbitol accumulation in sciatic nerve of streptozotocin-induced diabetic rat model administered via oral gavage at 4 to 24 hrs post streptozotocin treatment measured at 27 hrs post streptozotocin treatment relative to control. Format: functional.
For the next data set, the target named is Beta-secretase 1 (Homo sapiens, UniProt P56817). Description: Inhibition of BACE1 (unknown origin).
Data set [8] has as its target Protein deacetylase HDAC6 (Homo sapiens, UniProt Q9UBN7). Description: Inhibition of HDAC6 (unknown origin).
The subject of the next data set is MCF7. Nature of the data set: Inhibition of 17beta-estradiol-induced human MCF7 cells proliferation assessed as reduction in [3H]thymidine incorporation preincubated for 48 hrs followed by [3H]thymidine addition measured after 4 hrs by liquid scintillation counting method. Format: functional, cell-based. In general terms: Uptake of a labelled nucleoside into DNA is a usual measure of proliferation.

The subject of a further data set is Escherichia coli. Description: Antibacterial activity against Escherichia coli ATCC 35218 at 1000 ug/ml after 48 hrs by filter paper disc method. Format: functional. To be noted: ATCC 35218, 48 h, read-out: IZ.
In a further data set the test system is Bacillus spizizenii. Nature of the data set: Antibacterial activity against Bacillus subtilis ATCC 6633 at 1000 ug/ml after 48 hrs by filter paper disc method. The class given is functional. To be noted: ATCC 6633, 48 h, read-out: IZ.
Another data set deals with SK-N-SH. Description: Growth inhibition of human SK-N-SH cells. Format: functional.
The next data set relates to BXPC-3. Nature of the data set: Growth inhibition of human BxPC3 cells. Format: functional.
A further data set has as its system FaDu. Description: Growth inhibition of human FADU cells. The class given is functional.
In the next data set the test system is SW-1736. Description: Growth inhibition of human SW1736 cells. Format: functional.
In the next data set the test system is NCI-H460. Nature of the data set: Growth inhibition of human NCI-H460 cells. Format: functional, cell-based.
Another data set has as its system DU-145. Description: Growth inhibition of human DU145 cells. Format: functional.
In another data set the test system is Candida albicans. Nature of the data set: Antifungal activity against Candida albicans at 1000 ug/ml after 48 hrs by filter paper disc method. The class given is functional. To be noted: read-out: IZ.
Data set [9] in a line: Antioxidant activity assessed as inhibition of DPPH radical formation at 100 ug/ml relative to control. Format: functional.
Another data set concerns the target Acetylcholinesterase (Homo sapiens, UniProt P22303). Nature of the data set: Inhibition of AChE (unknown origin) using acetylthiocholine as substrate by Ellman's method relative to control. To be noted: concentration not given here. In general terms: In Ellman's method for cholinesterases, released thiocholine reacts with DTNB.

T2 sequence (P05067 whole entry): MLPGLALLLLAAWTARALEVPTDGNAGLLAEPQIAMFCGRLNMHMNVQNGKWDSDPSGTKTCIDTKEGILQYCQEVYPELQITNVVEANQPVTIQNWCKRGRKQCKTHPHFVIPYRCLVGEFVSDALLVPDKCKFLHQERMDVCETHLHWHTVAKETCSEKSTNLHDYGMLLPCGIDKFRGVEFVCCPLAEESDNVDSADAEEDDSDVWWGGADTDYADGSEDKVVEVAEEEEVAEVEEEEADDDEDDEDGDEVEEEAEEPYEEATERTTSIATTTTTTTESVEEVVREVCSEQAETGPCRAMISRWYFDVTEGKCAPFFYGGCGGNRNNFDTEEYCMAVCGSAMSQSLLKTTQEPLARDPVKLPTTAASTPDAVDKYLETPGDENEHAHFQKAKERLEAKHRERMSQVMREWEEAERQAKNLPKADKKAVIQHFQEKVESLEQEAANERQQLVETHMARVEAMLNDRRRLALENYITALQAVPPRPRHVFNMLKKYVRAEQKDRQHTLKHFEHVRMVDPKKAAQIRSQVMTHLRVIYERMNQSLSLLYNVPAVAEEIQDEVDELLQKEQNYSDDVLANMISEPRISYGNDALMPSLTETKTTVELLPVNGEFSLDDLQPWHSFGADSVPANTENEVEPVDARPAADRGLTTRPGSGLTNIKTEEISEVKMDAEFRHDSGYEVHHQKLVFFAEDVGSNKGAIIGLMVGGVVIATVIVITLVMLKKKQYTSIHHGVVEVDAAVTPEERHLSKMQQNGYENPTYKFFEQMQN
Chain of Beta-secretase 1 (P56817 whole entry): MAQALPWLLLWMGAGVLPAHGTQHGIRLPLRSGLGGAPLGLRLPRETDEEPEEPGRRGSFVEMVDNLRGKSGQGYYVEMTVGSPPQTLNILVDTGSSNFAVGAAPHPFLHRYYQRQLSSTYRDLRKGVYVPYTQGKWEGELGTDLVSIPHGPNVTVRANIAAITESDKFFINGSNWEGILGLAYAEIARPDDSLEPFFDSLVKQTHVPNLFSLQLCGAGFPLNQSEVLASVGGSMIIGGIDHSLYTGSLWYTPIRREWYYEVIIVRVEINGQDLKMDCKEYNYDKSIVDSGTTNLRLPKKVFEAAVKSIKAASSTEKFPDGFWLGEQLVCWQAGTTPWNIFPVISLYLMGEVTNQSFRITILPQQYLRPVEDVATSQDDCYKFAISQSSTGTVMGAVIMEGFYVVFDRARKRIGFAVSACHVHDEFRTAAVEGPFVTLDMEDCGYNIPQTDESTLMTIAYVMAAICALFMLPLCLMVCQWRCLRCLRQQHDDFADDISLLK
Chain of Protein deacetylase HDAC6 (Q9UBN7 whole entry): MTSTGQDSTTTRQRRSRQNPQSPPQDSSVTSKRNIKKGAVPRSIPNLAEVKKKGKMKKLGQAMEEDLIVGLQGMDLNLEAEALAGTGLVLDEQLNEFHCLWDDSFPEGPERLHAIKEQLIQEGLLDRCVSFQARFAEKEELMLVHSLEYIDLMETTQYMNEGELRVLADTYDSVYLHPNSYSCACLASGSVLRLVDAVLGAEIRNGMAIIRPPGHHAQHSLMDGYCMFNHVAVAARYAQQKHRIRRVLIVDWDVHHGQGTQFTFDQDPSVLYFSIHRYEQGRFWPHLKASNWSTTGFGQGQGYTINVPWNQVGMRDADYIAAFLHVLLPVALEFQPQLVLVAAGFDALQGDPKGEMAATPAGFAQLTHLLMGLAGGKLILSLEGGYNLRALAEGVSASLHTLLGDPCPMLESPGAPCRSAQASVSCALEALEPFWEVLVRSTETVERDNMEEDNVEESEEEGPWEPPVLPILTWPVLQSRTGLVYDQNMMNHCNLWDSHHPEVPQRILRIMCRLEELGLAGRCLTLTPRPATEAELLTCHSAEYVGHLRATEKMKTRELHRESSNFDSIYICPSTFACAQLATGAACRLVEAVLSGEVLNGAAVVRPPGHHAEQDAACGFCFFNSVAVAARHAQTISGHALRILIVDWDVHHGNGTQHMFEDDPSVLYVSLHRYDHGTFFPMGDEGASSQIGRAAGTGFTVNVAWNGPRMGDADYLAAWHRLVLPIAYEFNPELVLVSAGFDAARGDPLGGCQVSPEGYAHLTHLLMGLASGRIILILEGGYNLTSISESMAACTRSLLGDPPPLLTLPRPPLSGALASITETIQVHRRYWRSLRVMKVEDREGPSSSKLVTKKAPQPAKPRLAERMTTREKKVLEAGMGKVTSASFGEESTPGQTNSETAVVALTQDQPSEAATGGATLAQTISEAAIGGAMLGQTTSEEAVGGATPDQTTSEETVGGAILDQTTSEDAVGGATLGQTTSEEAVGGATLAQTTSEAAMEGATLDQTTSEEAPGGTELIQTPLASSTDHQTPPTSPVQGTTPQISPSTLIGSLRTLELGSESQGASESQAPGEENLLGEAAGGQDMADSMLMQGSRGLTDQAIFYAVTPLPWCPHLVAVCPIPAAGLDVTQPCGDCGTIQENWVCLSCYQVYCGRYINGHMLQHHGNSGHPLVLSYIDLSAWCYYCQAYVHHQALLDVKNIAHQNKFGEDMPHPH
Chain of Acetylcholinesterase (P22303 whole entry): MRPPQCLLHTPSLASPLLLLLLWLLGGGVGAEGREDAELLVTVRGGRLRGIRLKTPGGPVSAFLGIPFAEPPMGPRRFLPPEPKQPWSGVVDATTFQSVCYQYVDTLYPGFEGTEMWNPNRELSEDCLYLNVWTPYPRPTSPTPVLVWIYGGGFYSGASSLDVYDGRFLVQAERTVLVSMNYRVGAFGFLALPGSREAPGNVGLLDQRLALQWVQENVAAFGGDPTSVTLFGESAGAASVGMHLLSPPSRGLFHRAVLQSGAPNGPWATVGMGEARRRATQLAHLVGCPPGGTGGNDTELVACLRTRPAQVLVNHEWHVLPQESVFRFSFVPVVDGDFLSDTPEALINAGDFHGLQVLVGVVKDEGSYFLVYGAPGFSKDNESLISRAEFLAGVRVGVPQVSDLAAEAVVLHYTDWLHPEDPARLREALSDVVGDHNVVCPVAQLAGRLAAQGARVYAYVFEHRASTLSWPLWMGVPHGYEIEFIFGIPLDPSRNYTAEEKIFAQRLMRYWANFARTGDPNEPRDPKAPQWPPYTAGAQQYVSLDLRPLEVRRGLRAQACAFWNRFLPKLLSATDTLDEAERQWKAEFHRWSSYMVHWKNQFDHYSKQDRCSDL

`O=C(NCCc1ccccc1)c1sc2ccccc2c1Br`: in [1], the IC50 (as a rule, the concentration that gives 50% inhibition) was determined as 17700 nM.
Regarding `Oc1ccc(-c2cc3ccccc3s2)cc1`, the values for the inhibitory constant (Ki) in [2] and in [3] were 3.04 nM and 3.72 nM, respectively. Further, in data set [4], the logD (as a rule, the decadic logarithm of the distribution of all forms, ionised or not, between an organic phase and buffer at a given pH) stood at 2.99.
On to `CCOC(=O)c1c(-n2c(-c3ccccc3)nc3c(Br)cc(Br)cc3c2=O)sc2c1CCCC2`, for which the inhibition (as a rule, how much of the control response was suppressed) in [5] stood at 67%.
For the compound `O=c1c2c3c(sc2ncn1/N=C/c1ccccc1Cl)CCCC3`, in the data set with Rattus norvegicus [6], the inhibition in vivo (commonly the percentage by which the read-out fell short of the control) at 100 mg/kg stood at 28.2%.
`COc1cccc(C2OC(c3sc4ccccc4c3Cl)=NN2C(C)=O)c1` (stereo unspecified): the figures for the zone of inhibition at 5 µg/disc in the data set with Bacillus subtilis and in the data set on Staphylococcus aureus were 27 mm and 30 mm, respectively.
In the case of `O=C(O)Cc1nn(Cc2cc3cc(F)ccc3s2)c(=O)c2ccccc12`, the “inhibition (INH)” value in the data set on Rattus norvegicus [7] was found to be 49%.
The compound `COC(=O)c1cc(C)c2c(n1)sc1ccc(OC)cc12` yielded a concentration for half-maximal inhibition (IC50) against Beta-secretase 1 of 2200 nM.
`COc1ccc2cc(/C=N/n3cnc4sc5c(c4c3=O)CCCC5)ccc2c1`: the inhibition in vivo at 100 mg/kg in the data set on Rattus norvegicus [6] was determined as 28.3%.
Compound `CNC(=O)c1ccc(Nc2csc3ccccc23)cc1` yielded an IC50 in data set [8] of 14 nM.
Turning to `COC(=O)c1cc(C)nc2sc3cccc(OC)c3c12`, the IC50 on Beta-secretase 1 was determined as 600 nM.
Turning to `Nc1ccc(-c2cc3ccccc3s2)cc1`, the Ki – broadly, the dissociation constant of the complex between target and ligand, obtained from inhibition or displacement – was 4.31 nM in data set [2] and 6.5 nM in data set [3]. Besides, the logD in [4] came to 2.87.
`O=C(c1ccc(OCCN2CCCCC2)cc1)c1c(-c2ccc(O)cc2)sc2cccc(O)c12`: the IC50 in the data set with MCF7 was found to be 190 nM.
Consider `O=c1c2ccccc2nc(-c2sc3ccccc3c2Cl)n1O`, for which the zone of inhibition at 1000 µg/mL stood at 12 mm in the data set with Escherichia coli and 16 mm in the data set with Bacillus spizizenii.
On to `COc1ccc(-c2c(Oc3cc(OC)c(OC)c(OC)c3)c3ccc(OC)cc3[s+]2[O-])cc1` (stereo unspecified), for which the concentration for 50% growth inhibition (GI50) – broadly, the concentration at which growth is held to half of that of the control – in the data set with SK-N-SH worked out at 1.9 µg/mL (≈ 4.06 µM); in the data set on BXPC-3, 2.1 µg/mL (≈ 4.48 µM); in the data set with FaDu, 3.4 µg/mL (≈ 7.26 µM); with SW-1736, 3.7 µg/mL (≈ 7.9 µM); with NCI-H460 it was 3.2 µg/mL (≈ 6.83 µM); in the data set on DU-145, 7.3 µg/mL (≈ 15.6 µM).
Take `O=C(c1ccc(OCCN2CCCCC2)cc1)c1c(-c2ccc(Cl)cc2)sc2cc(O)ccc12`: in the data set on MCF7, the IC50 was determined as 1 nM.
On to `CC(C)Cc1ccc(C(C)C(=O)O)cc1` (stereo unspecified) [IBUPROFEN], for which the inhibition in vivo at 100 mg/kg in the data set on Rattus norvegicus [6] came out at 31.3%.
For `O=C(O)Cc1nn(Cc2cc3ccccc3s2)c(=O)c2ccccc12`, the “inhibition (INH)” value in the data set on Rattus norvegicus [7] is reported as 77%.
Turning to `Clc1c(NNc2nc(-c3ccccc3)cs2)sc2ccccc12`, the zone of inhibition at 1000 µg/mL in the data set on Candida albicans was 15 mm.
Take `Cc1cc(=O)oc2c(/C=N/NC(=O)c3sc4ccccc4c3Cl)c(O)ccc12`: the inhibition in data set [9] is 70%.
As for `CCOC(=O)c1c(NC(=O)CN2CCN(Cc3ccccc3)CC2)sc2c1CCCC2`, the inhibition at Acetylcholinesterase is 38.4%.
